Assay results reported in patent US8772499B2, “TRPV3 modulators” (AbbVie Inc., priority 2011, dated 2014).
Read-outs that look alike come from different tables or passages of the source.

Key:
[1] = In vitro human microsomal stability assay; format: in vitro ADME; details: human, microsomes, 0.5 h, 0.5 μM, pH 7.4
Procedure: Test compounds were evaluated for metabolic stability in an in vitro rat microsomal stability assay using rat liver microsomes (Sprague-Dawley, from BD Biosciences) and/or an in vitro human microsomal stability assay using human liver microsomes (Xenotech). […] Incubations were carried out at 37° C. with a final incubation volume of 135 μL. […] A 1.5 μL aliquot of reduced nicotine adenine disphosphonucleotide (NADPH) (Chem-Impex Int'L Inc., Lot 12532024) was also added to the time-zero plates.

[2] = biological target: T1, human TRPV3 (Homo sapiens, UniProt Q8NET8); assay: In vitro antagonism of recombinant human TRPV3 activation (FLIPR Tetra calcium assay); format: cell-based; details: HEK293 cells stably expressing human TRPV3, agonist 2-APB at 80 μM
T1 construct: expressed in transfected cells
T1 sequence (Q8NET8 1-790): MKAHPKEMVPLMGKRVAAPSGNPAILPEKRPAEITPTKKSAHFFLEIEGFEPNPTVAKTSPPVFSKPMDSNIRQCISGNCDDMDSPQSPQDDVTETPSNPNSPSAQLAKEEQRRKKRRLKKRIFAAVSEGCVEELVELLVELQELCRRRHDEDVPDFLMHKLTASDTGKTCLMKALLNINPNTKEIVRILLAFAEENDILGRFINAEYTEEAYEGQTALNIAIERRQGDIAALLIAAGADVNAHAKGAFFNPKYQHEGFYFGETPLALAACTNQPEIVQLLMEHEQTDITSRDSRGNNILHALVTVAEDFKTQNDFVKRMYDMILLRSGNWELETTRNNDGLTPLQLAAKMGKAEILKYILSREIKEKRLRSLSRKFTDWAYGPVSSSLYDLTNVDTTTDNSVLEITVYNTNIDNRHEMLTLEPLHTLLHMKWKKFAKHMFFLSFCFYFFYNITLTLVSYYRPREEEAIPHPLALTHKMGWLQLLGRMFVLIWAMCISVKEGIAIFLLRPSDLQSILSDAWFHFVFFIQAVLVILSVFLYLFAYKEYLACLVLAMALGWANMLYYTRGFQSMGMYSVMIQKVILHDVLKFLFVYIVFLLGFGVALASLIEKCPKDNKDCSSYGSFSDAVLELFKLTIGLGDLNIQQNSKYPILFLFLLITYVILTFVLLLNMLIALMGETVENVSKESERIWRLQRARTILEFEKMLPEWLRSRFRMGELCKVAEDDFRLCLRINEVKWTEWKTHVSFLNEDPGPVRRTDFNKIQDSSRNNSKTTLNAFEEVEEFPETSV
Procedure, shortened: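 Calcium flux read over a 10 min run: compound added at 10 s to Calcium-4-loaded human TRPV3-HEK293 cells, agonist 2-APB (80 μM, its EC80) after 3 min. IC50 derived from peak-minus-baseline signal as percentage of uninhibited 2-APB response, typically averaged over at least two runs.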

[3] = In vitro rat microsomal stability assay; format: in vitro ADME, rat (Sprague-Dawley); details: Sprague-Dawley, rat, microsomes, 0.5 h, 0.5 μM, pH 7.4
Procedure, shortened: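 Metabolic stability was followed in NADPH-supplemented incubations at 37° C., using microsomes prepared from human liver or from Sprague-Dawley rat liver.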

[4] = actual measured value shown parenthetically, in most cases average of at least two runs, read-out: IC50
[5] = reported range, read-out: IC50 (range class)

HUMAN MICROSOMAL STABILITY (% REMAINING AFTER 30 MINUTES) [1] | IC50 [2, 4] | RAT MICROSOMAL STABILITY (% REMAINING AFTER 30 MINUTES) [3] | IC50 [2, 5] | SMILES
70% | 2 µM | 4.3% |  | OC(c1ccccn1)C1(c2ccc(C(F)(F)F)cc2)CCCO1 (single isomer, unassigned) [Example 89, (syn)-pyridin-2-yl{2-[4-(trifluoromethyl)phenyl]tetrahydrofuran-2-yl}methanol]
26% | > 20 µM | 0.08% | > 20 µM | CC(C)(C)OC(=O)N1CCC(c2ccc(C(F)(F)F)cc2)(C(O)c2ccccn2)CC1 (centres unmarked) [Example 156, tert-butyl 4-[hydroxy(pyridin-2-yl)methyl]-4-[4-(trifluoromethyl)phenyl]-piperidine-1-carboxylate]
70% | 1.17 µM | 29% |  | ON=C1CC(c2ccc(OC(F)(F)F)cc2)([C@H](O)c2ccccn2)C1 (stereo partly drawn) [Example 248, (S)-{3-(hydroxyimino)-1-[4-(trifluoromethoxy)phenyl]cyclobutyl}(pyridin-2-yl)methanol]
>85% | > 20 µM | >85% | > 20 µM | CC1(O)CC(c2ccc(OC(F)(F)F)cc2)(C(O)c2ncccn2)C1 [Example 310, trans-3-((S)-hydroxy(pyrimidin-2-yl)methyl)-1-methyl-3-(4-(trifluoromethoxy)phenyl)cyclobutanol]
>85% | 17.3 µM | 53% |  | Cc1cc(C(F)(F)F)cc(C2([C@@H](O)c3ccccn3)CC(=O)C2)n1 [Example 291, 3-[(R)-hydroxy(pyridin-2-yl)methyl]-3-[6-methyl-4-(trifluoromethyl)-pyridin-2-yl]cyclobutanone]
<0.01% | > 20 µM | <0.01% | > 20 µM | OC(C1CCCc2cccnc21)C1(c2cccc(OC(F)(F)F)c2)CCC1 (stereo not drawn) [Example 187, (anti)-5,6,7,8-tetrahydroquinolin-8-yl{1-[3-(trifluoromethoxy)phenyl]-cyclobutyl}methanol]
80% | > 20 µM | 81% | > 20 µM | OC(c1ccccn1)C1(c2cccnc2)CCC1 (centres unmarked) [Example 20, pyridin-2-yl(1-pyridin-3-ylcyclobutyl)methanol]
2.7% | > 20 µM | <0.01% | > 20 µM | OC(C1CCc2cccnc21)C1(c2ccc(F)c(F)c2)CCC1 (stereo not drawn) [Example 171, (anti)-[1-(3,4-difluorophenyl)cyclobutyl][6,7-dihydro-5H-cyclopenta[b]-pyridin-7-yl]methanol]
<0.01% | 1.98 µM | <0.01% |  | OC(C1CCCc2cccnc21)C1(c2ccc(Cl)c(Cl)c2)CCC1 (single isomer, unassigned) [Example 181, (anti)-[1-(3,4-dichlorophenyl)cyclobutyl][5,6,7,8-tetrahydroquinolin-8-yl]-methanol]
12% | 0.44 µM | 13% |  | O[C@H](c1ccccn1)C1(c2ccc(C(F)(F)F)cc2)CCC1 [Example 28, (S)-pyridin-2-yl{1-[4-(trifluoromethyl)phenyl]cyclobutyl}methanol]
38% | 0.37 µM | 7.0% |  | OC(c1ccccn1)C1(c2ccc(C(F)(F)F)cc2)CCCO1 (single isomer, unassigned) [Example 88, (anti)-pyridin-2-yl{2-[4-(trifluoromethyl)phenyl]tetrahydrofuran-2-yl}methanol]
